Reference: patent publication US5061703A, “Adamantane derivatives in the prevention and treatment of cerebral ischemia” (priority 1989, dated 1991)
Values joined by “and” are separate entries in the source; they are usually repeats but may differ in a detail not shown here. Equal entries are not always repeated. Where two headings read alike, the source gives them in different places.

Experiments:
NMDA receptor channel = experiment: Blocking of NMDA Receptor Channels (patch-clamp, cultivated spinal marrow neurons); assay type: cell-based, mouse; details: 20 μM NMDA and 6 μM of adamantane derivative; current integrated 20 sec; means ± SEM
Procedure: In the following test it is shown that the compounds of formula (I) according to the invention are as effective as PCP in blocking the NMDA receptor channel.
In the patch-clamp experiment, the current flowing through NMDA-activated membrane channels of cultivated spinal marrow neurons (mouse) is measured (Hamill et al 1981, Pflugers Arch. 312: 85-100). After application of 20 μM NMDA, the current signal of the cell is integrated for 20 sec. and recorded as a control answer (Ac). During succeeding application of 20 μM NMDA and 6 μM of an adamantane derivative, the intensity of the substance effect can be determined as a relative change of the control answer (A/Ac -A=test answer).

[1] = system: electrically induced convulsions; experiment: Anticonvulsive Effect (supermaximum electroshock test in mice); assay type: in vivo, mouse; details: for Anticonvulsive action (score): i.p., 4, 12, 36, 108 and 324 mg/kg, protected animals added over all dosages, maximum = 25, individual scores; for Anticonvulsive action (score), Mean / ED50: i.p.; for Anticonvulsive action (score), Mean: mean of scores, maximum = 25; for ED50: electroshock 40 min after application, estimated according to Litchfield and Wilcoxon
Procedure: 4, 12, 36, 108 and 324 mg/kg of the test substance is administered to mice by the intraperitoneal route (5 animals per dose). The supermaximum electroshock test is applied forty (40) minutes after application of the substance to investigate the anti-convulsive potential of the substance. The protected animals are added up over all dosages (score; maximum=25 animals).

[2] = system: brain cells after cerebral ischemia; details: rats; Sauer et al. 1988; cited from earlier work
NMDA-induced mortality = experiment: Protection Against NMDA-Induced Mortality (mice); assay type: in vivo, mouse; details: 200 mg/kg NMDA i.p.
Procedure: It is well known that, subsequent to cerebral ischemia, glutamate and aspartate levels increase massively in the brain. These excitatory aminoacids overstimulate the NMDA-subtype of the glutamate receptor thus leading to delayed neuronal death. A similar pathophysiological situation is obtained when mice are administered intraperitoneally with 200 mg/kg NMDA. This high dose will eventually cause 100% mortality in the animals (Leander et al. 1984, Brain Res. 448; 115-120).

[3] = target: MK-801 binding site of the NMDA receptor channel; experiment: Displacement of [3H] MK-801 Binding in Human Brain Tissue (frontal cortex homogenates); details: [3H] MK-801 (3 nM), mean of triplicate experiments
Procedure: MK-801 binds to the ion channel associated with the NMDA receptor, as well as TCP does. This binding site is thought to mediate the neuroprotective effects of non-competitive NMDA-antagonists.
We have investigated whether the adamantane derivatives of the present invention are active at the MK-801 binding site. Tissue from frontal cortex was taken from patients at autopsy and homogenates were prepared. Inhibition of specific [^3 H] MK-801 binding (3 nM) by the test compounds was determined (see e.g. Kornhuber et al. 1989, Eur. J. Pharmacol. 166: 589-590).
wherein Ki is the inhibition constant and nM is nanomoles per liter. Mean values from triplicate experiments are given ± S.E.M.
The inhibition constant Ki is approximately equal to the concentration of the adamantane in nM required to displace 50% of the MK-801 specifically bound to the receptor.

[4] = target: NMDA receptor-associated ionic channel (PCP/TCP binding site); experiment: Displacement of TCP Binding (3H-TCP, membrane preparation of rat cortex)
Procedure: Phencyclidine (PCP), a known NMDA antagonist, binds to the NMDA receptor-associated ionic channel and blocks ionic transport (Garthwaite & Garthwaite, Neurosci. Lett. 83, 1987, 241-246).
The interaction between compounds of formula (I) and the PCP bond is studied in the following. In this test ^3 H-TCP, a PCP analogue, is used.
A membrane preparation of rat cortex is incubated with ^3 H-TCP which is an analogue of phencyclidine (PCP) (Quirion & Pert 1982, Eur. J. Pharmacol. 83:155). The interaction with the TCP binding is assessed for test compound no. 1 (1-amino-3,5-dimethyl adamantane) in a competitive experiment. […] The conclusion can be drawn that compound no. 1 binds to NMDA receptor channels at the same site as the NMDA antagonist PCP.

[5] = system: neurons in the CA1-CA4 region of the hippocampus; experiment: Protection Against Cerebral Ischemia (carotid occlusion in rats, hippocampal histology); assay type: in vivo, rat; details: for damaged neurons, area CA1 / damaged neurons, area CA3 / damaged neurons, area CA4: single administration 1 h prior to ischemia, ± SEM
Procedure: Both carotid arteries are occluded in rats for 10 minutes. […] The ischemia is terminated by opening the carotids and reinfusion of the withdrawn blood. After seven days the brains of the test animals are histologically examined for cellular changes in the CA1-CA4 region of the hippocampus, and the percentage of destroyed neurons is determined.

[6] = system: MK-801 binding site of the NMDA receptor channel; details: as reported in the foregoing publication (Kornhuber et al. 1989); cited from earlier work
[7] = Mus musculus, ip, 40 min, read-out: ED50

SMILES | 1-A/Ac (NMDA receptor channel) | Anticonvulsive action (score) ([1]; 40 min) | Anticonvulsive action (score), Mean ([1]; 40 min) | ED50 [1, 7] [mg/kg] | Protected Animals (NMDA-induced mortality; 25 mg/kg) | Ki [3] [µM] | Protected Animals (NMDA-induced mortality; 50 mg/kg) | also measured
c1ccc(C2(N3CCCCC3)CCCCC2)cc1 [PCP, Phencyclidine, reference compound] | 0.50 ± 0.04 | 19 | 19.0 | – | – | – | – | ED50 [1]: 9 mg/kg; prevention of destruction of brain cells after cerebral ischemia (in words) [2]: prevent the destruction of brain cells after cerebral ischemia in rats
CCC12CC3CC(CC(N)(C3)C1)C2 [compound 2, 1-amino-3-ethyl adamantane] | 0.44 ± 0.08 | 15 and 14 and 12 | 13.7 | 30 | – | – | – | –
CNC12CC3CC(C)(CC(C)(C3)C1)C2 [compound 5, 1-N-methylamino-3,5-dimethyl adamantane] | 0.56 ± 0.07 | 17 | 17.0 | 13 | 5/8 | 1.61 | – | –
CC(C)C12CC3CC(CC(N)(C3)C1)C2 [compound 3, 1-amino-3-isopropyl adamantane] | 0.58 ± 0.07 | – | – | – | 4/8 | 0.598 | 6/8 | –
NC12CC3CC(C1)CC(C1CCCCC1)(C3)C2 [compound 7, 1-amino-3-cyclohexyl adamantane] | 0.25 ± 0.04 | – | – | – | – | – | – | –
CCNC12CC3CC(C)(CC(C)(C3)C1)C2 [compound 6, 1-N-ethylamino-3,5-dimethyl adamantane] | 0.38 ± 0.05 | – | – | – | – | – | – | –
CCC12CC3(C)CC(C)(CC(N)(C3)C1)C2 [compound 8, 1-amino-3,5-dimethyl-7-ethyl adamantane] | 0.50 ± 0.03 | – | – | – | – | – | – | –
C[C@]12N[C@H](Cc3ccccc31)c1ccccc12 [MK-801, 5-methyl-10,11-dihydro-5H-dibenzo[a,d]cycloheptene-5,10-imine, reference compound] | 0.60 ± 0.05 | 25 | 25.0 | < 1 | – | – | – | –
CCC12CC3CC(N)(C1)CC(CC)(C3)C2 [compound 4, 1-amino-3,5-diethyl adamantane] | 0.50 ± 0.11 | 16 and 11 | 14.3 | 24 | 5/8 | 0.189 | 7/8 | –
CC12CC3CC(C)(C1)CC(N)(C3)C2 [Compound no. 1, 1-amino-3,5-dimethyl adamantane] | 0.66 ± 0.05 | 18 and 16 and 15 | 16.3 | 16 | 6/8 | – | 8/8 | IC50 ([4]; membrane preparation of rat cortex, competitive experiment): 0.089 µM; displacement of TCP from the bond (in words) ([4]; rat cortex membranes): very effective; damaged neurons, area CA1 ([5]; 5 mg/kg (n = 5)): 83.0 ± 2.2%; damaged neurons, area CA3 ([5]; 5 mg/kg (n = 5)): 7.3 ± 1.8%; damaged neurons, area CA4 ([5]; 5 mg/kg (n = 5)): 3.7 ± 1.7%; damaged neurons, area CA3 ([5]; 20 mg/kg (n = 6)): 2.7 ± 1.0%; damaged neurons, area CA4 ([5]; 20 mg/kg (n = 6)): 0.6 ± 0.3%; damaged neurons, area CA1 ([5]; 20 mg/kg (n = 6), **p < 0.01 (U test)): 53.1 ± 6.1%; reduction of post-ischemic neuronal brain damage in the CA1 region (in words) ([5]; pre-ischemic application of 20 mg/kg, rat hippocampus): statistically significant; physiological parameters (e.g. blood pressure, body temperature) ([5]; rats, during ischemia test): not affected by the treatment; Protected Animals (NMDA-induced mortality; 10 mg/kg): 3/8; potency compared with thirteen other clinically-used and centrally-acting drugs (in words) [6]: most potent compound
